The test system of one series is HBV. Put plainly: HBV inhibitory activity: HBV DNA in the culture medium of HepG2.2.15 cells by q-PCR. Type of series: cell-based. As to conditions: HepG2.2.15 cells, 6 days of compound treatment, HBV DNA in culture medium by q-PCR, highest concentration 10 μM, read-out: EC50. The procedure, abridged:
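Supernatant HBV DNA quantified by q-PCR after a 6-day compound exposure, with one mid-course medium change, of HepG2.2.15 cells (stably integrated HBV; 40,000 per well, 2% FBS). Eight-point 3-fold series topped at 10 μM for antiviral EC50; separate plates of 5,000 cells per well with 100 μM top give CC50.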

The nature of series [1]: Cytotoxicity determination in HepG2.2.15 cells (CCK-8). It is filed as cell-based. The conditions noted are these: human, 6 days of compound treatment, CCK-8, highest concentration 100 μM. The method, boiled down:
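CC50 is from CCK-8 absorbance (450 nm, 630 nm reference) after 2.5 h with reagent. Before that, compounds were applied for six days, top concentration 100 μM, eight threefold dilutions, one mid-course medium change, to stably HBV-integrated HepG2.2.15 cells plated at 5,000/well in 2% FBS.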

Setting [2] is: Hepatitis B virus, HepG2.2.15, 144 h.

Where two headings read alike, the source gives them in different places. A value given as a limit tells only on which side of the number the result lay.

As usually defined, the EC50 is the concentration at which the effect is half-maximal. In general, CC50 refers to the concentration that lowers cell viability or growth by half. High values mean better tolerance by the cells, low ones harm at low concentration.

As for `CCOC(=O)C1=C(C2CCN(S(C)(=O)=O)CC2)NC(c2ncc(F)cc2F)=NC1c1ccc(F)cc1Cl` (single isomer, unassigned) [Compound 56A, Ethyl 4-(2-chloro-4-fluorophenyl)-2-(3,5-difluoropyridin-2-yl)-6-(1-(methylsulfonyl)piperidin-4-yl)-1,4-dihydropyrimidine-5-carboxylate], in the series on HBV (setting [2]), the 50% effective concentration (EC50) was determined as 513 nM. Besides, the CC50 at 6 days in series [1] was > 10000 nM.
The like results for `COC(=O)C1=C(C2CCN(S(C)(=O)=O)CC2)NC(c2nccs2)=NC1c1ccc(F)c(F)c1Cl` (single isomer, unassigned) [Compound 59B, Methyl 4-(2-chloro-3,4-difluorophenyl)-6-(1-(methylsulfonyl)-piperidin-4-yl)-2-(thiazol-2-yl)-1,4-dihydropyrimidine-5-carboxylate] were, in that order, 388 nM and 27900 nM.
The like results for `COC(=O)C1=C(C2CCCN2S(C)(=O)=O)NC(c2nccs2)=NC1c1ccc(F)cc1Cl` (single isomer, unassigned) [Compound 69C, Methyl 4-(2-chloro-4-fluorophenyl)-6-(1-(methylsulfonyl)-pyrrolidin-2-yl)-2-(thiazol-2-yl)-1,4-dihydropyrimidine-5-carboxylate] were, in that order, 448 nM and 11900 nM.
For `COC(=O)C1=C(C2CCCO2)NC(c2nccs2)=NC1c1ccc(F)cc1Cl` (single isomer, unassigned) [Compound 70D, Methyl 4-(2-chloro-4-fluorophenyl)-6-(tetrahydrofuran-2-yl)-2-(thiazol-2-yl)-1,4-dihydropyrimidine-5-carboxylate], the EC50 in the series with HBV (setting [2]) was 140 nM. Moreover, in series [1], the cytotoxic concentration (CC50) at 6 days is 22600 nM.
Turning to `COC(=O)C1=C(C2CCC(C(=O)O)C2)NC(c2nccs2)=NC1c1ccc(F)cc1Cl` (single isomer, unassigned) [Compound 72C, 3-(6-(2-Chloro-4-fluorophenyl)-5-(methoxycarbonyl)-2-(thiazol-2-yl)-3,6-dihydropyrimidin-4-yl)cyclopentanecarboxylic Acid], the EC50 in the series on HBV came out at 475 nM. In series [1], the cytotoxic concentration (CC50) at 6 days worked out at 22100 nM.
For the molecule `COC(=O)C1=C([C@H]2CC[C@@H](C(=O)OC)O2)NC(c2nccs2)=NC1c1cccc(F)c1Cl` (single isomer, unassigned) [Compound 73H, cis-Methyl 4-(2-chloro-3-fluorophenyl)-6-(5-(methoxycarbonyl)-tetrahydro-furan-2-yl)-2-(thiazol-2-yl)-1,4-dihydropyrimidine-5-carboxylate], in the series on HBV (setting [2]), the EC50 came out at 350 nM. In series [1], this molecule displayed a CC50 at 6 days of 32900 nM.
Take `COC(=O)C1=C(C2CN(S(C)(=O)=O)C2)NC(c2nccs2)=NC1c1ccc(F)cc1Cl` (single isomer, unassigned) [Compound 84A, 4-(2-Chloro-4-fluoro-phenyl)-6-(1-methanesulfonyl-azetidin-3-yl)-2-thiazol-2-yl-1,4-dihydro-pyrimidine-5-carboxylic Acid Methyl Ester]: the EC50 with HBV (setting [2]) amounted to 118 nM. The molecule further displayed a CC50 at 6 days in series [1] of 29000 nM.
The like results for `COC(=O)C1=C(C2CC(C(=O)OC)C2)NC(c2nccs2)=NC1c1ccc(F)cc1Cl` (single isomer, unassigned) [Compound 85C, 4-(2-Chloro-4-fluoro-phenyl)-6-(3-methoxycarbonyl-cyclobutyl)-2-thiazol-2-yl-1,4-dihydro-pyrimidine-5-carboxylic Acid Methyl Ester] were, in that order, 600 nM and 95400 nM.
Take `COC(=O)C1=C([C@H]2C[C@H](NC(C)=O)C2)NC(c2nccs2)=NC1c1ccc(F)cc1Cl` (single isomer, unassigned) [Compound 89R, trans-Methyl 6-(3-acetamidocyclobutyl)-4-(2-chloro-4-fluoro-phenyl)-2-(thiazol-2-yl)-1,4-dihydropyrimidine-5-carboxylate]: the EC50 with HBV (setting [2]) was found to be 112 nM. In series [1], this molecule yielded a CC50 at 6 days of 17200 nM.
The like results for `COC(=O)C1=C(C2CC2)NC(c2nccs2)=NC1c1ccc(F)cc1Cl` (single isomer, unassigned) [Compound 90A, Methyl 4-(2-chloro-4-fluorophenyl)-6-cyclopropyl-2-(thiazol-2-yl)-1,4-dihydropyrimidine-5-carboxylate] were, in that order, 23 nM and 26700 nM.
In the case of `CCOC(=O)C1=C([C@@H]2C[C@H]2CC(=O)O)NC(c2nccs2)=NC1c1ccc(F)cc1Cl` (single isomer, unassigned) [Compound 92, 2-(trans-2-(6-(2-Chloro-4-fluorophenyl)-5-(ethoxycarbonyl)-2-(thiazol-2-yl)-3,6-dihydropyrimidin-4-yl)cyclopropyl)acetic Acid], in the series on HBV (setting [2]), the half-maximal effective concentration (EC50) worked out at 326 nM. For the same molecule, in series [1], it took 99000 nM to reach half-maximal cytotoxicity (CC50 at 6 days).
Regarding `COC(=O)C1=C(C2CCCN(S(C)(=O)=O)C2)NC(c2nccs2)=NC1c1cccc(F)c1Cl` (single isomer, unassigned) [Compound 98A, Methyl 4-(2-chloro-3-fluorophenyl)-6-(1-(methylsulfonyl)piperidin-3-yl)-2-(thiazol-2-yl)-1,4-dihydropyrimidine-5-carboxylate], the half-maximal effective concentration (EC50) with HBV (setting [2]) amounted to 270 nM. This molecule yielded a cytotoxic concentration (CC50) at 6 days in series [1] of 11400 nM.
Turning to `COC(=O)C1=C(C2CCN(S(=O)(=O)C3COC3)CC2)NC(c2nccs2)=NC1c1ccc(F)cc1Cl` (single isomer, unassigned) [Compound 110B, Methyl 4-(2-chloro-4-fluorophenyl)-6-(1-(oxetan-3-ylsulfonyl)-piperidin-4-yl)-2-(thiazol-2-yl)-1,4-dihydropyrimidine-5-carboxylate], the EC50 in the series with HBV (setting [2]) is 798 nM. Further, the CC50 at 6 days in series [1] is > 10000 nM.
The like results for `COC(=O)C1=C(C2CCN(S(C)(=O)=O)CC2)NC(c2nccs2)=NC1c1cccc(F)c1Cl` (single isomer, unassigned) [Compound 112B, Methyl 4-(2-chloro-3-fluorophenyl)-6-(1-(methylsulfonyl)-piperidin-4-yl)-2-(thiazol-2-yl)-1,4-dihydropyrimidine-5-carboxylate] were, in that order, 950 nM and 8200 nM.
With `COC(=O)CCS(=O)(=O)N1CCC(C2=C(C(=O)OC)C(c3cccc(F)c3Cl)N=C(c3nccs3)N2)CC1` (single isomer, unassigned) [Compound 113Y, 4-(2-Chloro-3-fluoro-phenyl)-6-[1-(2-methoxycarbonyl-ethane-sulfonyl)-piperidin-4-yl]-2-thiazol-2-yl-1,4-dihydro-pyrimidine-5-carboxylic Acid Methyl Ester], in the series with HBV (setting [2]), the EC50 was found to be 966 nM. In addition, the CC50 at 6 days in series [1] was found to be 11800 nM.
The like results for `CNS(=O)(=O)N1CCC(C2=C(C(=O)OC)C(c3cccc(F)c3Cl)N=C(c3nccs3)N2)CC1` (single isomer, unassigned) [Compound 115B, 4-(2-Chloro-3-fluoro-phenyl)-6-(1-methylsulfamoyl-piperidin-4-yl)-2-thiazol-2-yl-1,4-dihydro-pyrimidine-5-carboxylic Acid Methyl Ester] were, in that order, 342 nM and 19100 nM.
In the case of `COC(=O)C1=C(C2CCN(S(=O)(=O)c3ccccn3)CC2)NC(c2nccs2)=NC1c1cccc(F)c1Cl` (single isomer, unassigned) [Compound 116B, Methyl 4-(2-chloro-3-fluorophenyl)-6-(1-(pyridin-2-ylsulfonyl)-piperidin-4-yl)-2-(thiazol-2-yl)-1,4-dihydropyrimidine-5-carboxylate], in the series with HBV (setting [2]), the concentration giving a half-maximal response (EC50) was found to be 207 nM. This molecule came in with a CC50 at 6 days in series [1] of 71300 nM.
`COC(=O)C1=C(C2CCN(S(C)(=O)=O)CC2)NC(c2nccs2)=NC1c1ccc(F)cc1Br` (single isomer, unassigned) [Compound 120A, Methyl 4-(2-bromo-4-fluorophenyl)-6-(1-(methylsulfonyl)-piperidin-4-yl)-2-(thiazol-2-yl)-1,4-dihydropyrimidine-5-carboxylate]: the EC50 in the series with HBV stood at 350 nM. For the same molecule, half-maximal cytotoxicity in series [1] (CC50 at 6 days) was put at 31700 nM.
As to `COC(=O)C1=C(C2CCN(C(=O)CO)CC2)NC(c2nccs2)=NC1c1ccc(F)cc1Cl` (single isomer, unassigned) [Compound 122B, Methyl 4-(2-chloro-4-fluorophenyl)-6-(1-(2-hydroxyacetyl)-piperidin-4-yl)-2-(thiazol-2-yl)-1,4-dihydropyrimidine-5-carboxylate], the concentration for a half-maximal effect (EC50) with HBV (setting [2]) was 57 nM. In series [1], this molecule had a half-maximal cytotoxic concentration (CC50) at 6 days of 31600 nM.
For the molecule `COC(=O)C1=C(C2CCN(S(C)(=O)=O)CC2)NC(c2nccs2)=NC1c1ccc(Cl)c(F)c1` (single isomer, unassigned) [Compound 124B, 4-(4-Chloro-3-fluoro-phenyl)-6-(1-methanesulfonyl-piperidin-4-yl)-2-thiazol-2-yl-1,4-dihydro-pyrimidine-5-carboxylic Acid Methyl Ester], the half-maximal effective concentration (EC50) in the series on HBV (setting [2]) is 85 nM. The same molecule came in with a CC50 at 6 days in series [1] of 6600 nM.
Regarding `COC(=O)C1=C([C@H]2CC[C@H](NS(C)(=O)=O)CC2)NC(c2nccs2)=NC1c1ccc(F)cc1Cl` (single isomer, unassigned) [Compound 126B, Methyl 4-(2-chloro-4-fluorophenyl)-6-(trans-4-(methyl-sulfonamido)cyclohexyl)-2-(thiazol-2-yl)-1,4-dihydropyrimidine-5-carboxylate], the EC50 with HBV (setting [2]) amounted to 343 nM. The molecule further displayed a CC50 at 6 days in series [1] of 31800 nM.
The like results for `COC(=O)C1=C([C@H]2CC[C@@H](NS(C)(=O)=O)CC2)NC(c2nccs2)=NC1c1ccc(F)cc1Cl` (single isomer, unassigned) [Compound 128D, Methyl 4-(2-chloro-4-fluorophenyl)-6-(cis-4-(methylsulfonamido)-cyclohexyl)-2-(thiazol-2-yl)-1,4-dihydropyrimidine-5-carboxylate] were, in that order, 17 nM and 22800 nM.

These data come from US11639350B2, “Heteroaryldihydropyrimidine derivatives and methods of treating hepatitis B infections” (Janssen Pharmaceutica NV, priority 2018, dated 2023).
